Patent US10888520B2, “Coated particle and method for producing coated particle” (KOBE GAKUIN EDUCATIONAL FOUNDATION, priority 2010, dated 2021)

Assay: Elution test, JP XV paddle method
Format: physicochemical
Conditions: paddle 100 rpm, 900 ml pure water, 37° C.
Experimental: The coating particles obtained in Examples 1 to 3 and the acetaminophen bulk powder were subjected to an elution test.
The elution test was carried out under the conditions of the number of revolutions of paddle: 100 rpm, 900 ml pure water and 37° C., in accordance with JP XV paddle method. Elution concentration of acetaminophen was obtained from an absorbance (285 nm).

- elution concentration of acetaminophen (after 0.5 minute): 90%
- elution concentration of acetaminophen (after (about) 1 minute): 100%
Compound: CC(=O)Nc1ccc(O)cc1 [acetaminophen bulk powder, acetaminophen]
